Results taken from patent US20100204202A1, “DRUG FOR ALLEVIATING MOTOR COMPLICATIONS OR PSYCHIATRIC SYMPTOMS OF PARKINSON'S DISEASE” (Asubio Pharma Co., Ltd., priority 2007, published 2010).
“Also recorded” adds a separate entry of the source. Counter-ions that a name gives are not always drawn. Like-named read-outs stand apart in the source and are kept apart here.

Key:
[1] = molecular target: T1, human dopamine D2L receptors (Homo sapiens, UniProt P14416); test: Agonist/antagonist assay, [35S]GTPgammaS binding, human dopamine D2L receptors; assay type: biochemical; conditions: for EC50 / Emax / IC50: Dopamine D2L; for antagonist activity (in words): human dopamine D2L receptors
T1 construct: expressed in transfected cells; host or cells: CHO
Procedure: (§1) For the tests, membrane specimens prepared from Chinese hamster ovary (CHO-K1) cells expressing human serotonin 1A receptors, Chinese hamster ovary (CHO) cells expressing human dopamine D2L receptors, Chinese hamster ovary (CHO) cells expressing human dopamine D2S receptors and Chinese hamster ovary (CHO) cells expressing human dopamine D3 receptors were used. In the agonist assays, for the serotonin 1A receptors, [^35S] GTPγS (final concentration 0.1 nM), a GDP solution (final concentration 3 μM), the test sample solution and a membrane specimen were added to a 20 mM Hepes-NaOH buffer (pH 7.4) containing 100 mM NaCl, 3 mM MgCl2 and 10 μg/mL saponin and allowed to react at 25° C. for 30 minutes. Further, for the dopamine (D2L, D2S and D3) receptors, [^35S] GTPγS (i.e., final concentration 0.1 nM), a GDP solution (final concentration 3 μM), the test sample solution and a membrane specimen were added to a 20 mM Hepes-NaOH buffer (pH 7.4) containing 100 mM NaCl, 10 mM MgCl2, 1 mM DTT and 1 mM EDTA and allowed to react at 30° C. for 15 minutes (in the case of D2L receptors) or for 30 minutes (in the cases of D2S and D3 receptors). Further, in the antagonist assays, except for adding to the reaction solutions 10 μM 5-carboxamide tryptamine (5-CT) (in the case of serotonin 1A receptors), 3 μM dopamine (in the cases of D2L and D2S receptors), or 0.1 μM dopamine (in the case of D3 receptors), operations were performed similar to the agonistic tests. After the end of the reaction, the reaction solution was filtered with a cell harvester, the filtered filter paper was transferred to a measurement vial, a liquid scintillator was added, and the radioactivity of the [^35S] GTPγS remaining on the filter paper was determined by a liquid scintillation counter. The human serotonin 1A receptor and human dopamine (D2L, D2S, and D3) receptor agonist/antagonist activities of the test sample were expressed as the rates of increase, when making the increase in [^35S] GTPγS bonds due to 10 μM 5-CT (in the case of serotonin 1A receptors), 3 μM dopamine (in the cases of D2L and D2S receptors), or 0.1 μM dopamine (in the case of D3 receptors) 100%. From the bond increasing rate, a regression formula was used to calculate the 50% reaction concentration (EC50) and 50% inhibition concentration (IC50).

[2] = molecular target: T2, human serotonin 1A receptors (Homo sapiens, UniProt P08908); test: Binding affinity test on human serotonin 1A receptors ([3H]8-OH-DPAT, CHO-K1 membranes); conditions: for Ki: Serotonin 1A; for binding affinity (in words): human serotonin 1A receptors
T2 construct: expressed in transfected cells; host or cells: CHO-K1
T2 sequence (P08908 1-422): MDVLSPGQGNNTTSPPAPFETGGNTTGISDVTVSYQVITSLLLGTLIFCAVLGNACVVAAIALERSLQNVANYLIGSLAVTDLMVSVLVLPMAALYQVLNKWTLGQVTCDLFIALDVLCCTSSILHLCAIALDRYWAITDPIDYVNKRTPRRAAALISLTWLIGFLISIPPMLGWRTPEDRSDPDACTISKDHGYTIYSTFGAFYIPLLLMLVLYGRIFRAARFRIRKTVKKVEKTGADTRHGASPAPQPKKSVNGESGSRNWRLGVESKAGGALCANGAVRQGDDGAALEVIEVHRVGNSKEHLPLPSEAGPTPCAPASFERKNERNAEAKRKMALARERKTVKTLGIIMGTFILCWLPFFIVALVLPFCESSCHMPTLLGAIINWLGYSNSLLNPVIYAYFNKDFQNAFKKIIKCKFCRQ
Procedure: For the test, membrane specimens prepared from Chinese hamster ovary (CHO-K1) cells expressing human serotonin 1A receptors were used. To a 50 mM Tris-HCl buffer (pH 7.4) including 5 mM CaCl2, 0.1% ascorbic acid, and 10 μg/mL saponin, [^3H] […] The reaction solution was allowed to react at 25° C. for 60 minutes, then the reaction solution was filtered with a cell harvester, the filtered filter paper was transferred to a measurement vial, a liquid scintillator was added and the receptor bond radioactivity remaining on the filter paper was determined by a liquid scintillation counter. The nonspecific bonds were defined as the amount of bonds in the presence of 10 μM serotonin.
The following formula was used to calculate the binding inhibition rate: […]
Furthermore, the inhibition constant (Ki) was calculated.

[3] = molecular target: T2, human serotonin 1A receptors; test: Agonist/antagonist assay, [35S]GTPgammaS binding, human serotonin 1A receptors; assay type: biochemical; conditions: for EC50 / Emax / IC50: Serotonin 1A; for agonist activity (in words): human serotonin 1A receptors
Procedure: as §1

[4] = molecular target: T1, human dopamine D2L receptors; test: Binding affinity test on human dopamine D2L receptors ([3H]spiperone, CHO membranes); conditions: for Ki: Dopamine D2L; for binding affinity (in words): human dopamine D2L receptors
Procedure: For the test, membrane specimens prepared from Chinese hamster ovary (CHO) cells expressing human dopamine D2L receptors were used. To a 50 mM Tris-HCl (pH 7.4) buffer containing 1.4 mM ascorbic acid, 0.001% BSA, and 150 mM NaCl, [^3H] spiperone (final concentration 0.16 nM), the test sample solution and a membrane specimen were added. The reaction solution was allowed to react at 25° C. for 2 hours, then the reaction solution was filtered with a cell harvester, the filtered filter paper was transferred to a measurement vial, a liquid scintillator was added and the receptor bond radioactivity remaining on the filter paper was determined by a liquid scintillation counter. The nonspecific bonds were defined as the amount of bonds in the presence of 10 μM haloperidol.
The following formula was used to calculate the binding inhibition rate:
[amount of [^3H] spiperone bonds in the presence of 10 μM haloperidol]}/{[amount of [^3H] spiperone bonds in the absence of test sample]−[amount of [^3H] spiperone bonds in the presence of 10 μM haloperidol]}
From the binding inhibition rate, a regression formula was used to calculate the 50% inhibition concentration. Furthermore, the inhibition constant (Ki) was calculated.

[5] = molecular target: T3, human dopamine D2S receptors (Homo sapiens, UniProt P14416); test: Agonist/antagonist assay, [35S]GTPgammaS binding, human dopamine D2S receptors; assay type: biochemical; conditions: for EC50 / Emax / IC50: Dopamine D2S; for antagonist activity (in words): human dopamine D2S receptors
T3 construct: expressed in transfected cells; host or cells: CHO
Procedure: as §1

[6] = molecular target: T4, human dopamine D3 receptors (Homo sapiens, UniProt P35462); test: Agonist/antagonist assay, [35S]GTPgammaS binding, human dopamine D3 receptors; assay type: biochemical; conditions: for agonist activity (in words) / antagonist activity (in words): human dopamine D3 receptors
T4 construct: expressed in transfected cells; host or cells: CHO
Procedure: as §1

[7] = 3 μM dopamine = 100%, read-out: Agonist assay Emax
[8] = with 3 μM dopamine, read-out: Antagonist assay Emax
[9] = 10 μM 5-CT = 100%, read-out: Agonist assay Emax
[10] = with 10 μM 5-CT, read-out: Antagonist assay Emax
[11] = Dopamine D3, 0.1 μM dopamine = 100%, read-out: Agonist assay Emax
[12] = Dopamine D3, read-out: Agonist assay EC50
[13] = Dopamine D3, with 0.1 μM dopamine, read-out: Antagonist assay Emax
[14] = Dopamine D3, with 0.1 μM dopamine, read-out: Antagonist assay IC50

T1 sequence (P14416 whole entry): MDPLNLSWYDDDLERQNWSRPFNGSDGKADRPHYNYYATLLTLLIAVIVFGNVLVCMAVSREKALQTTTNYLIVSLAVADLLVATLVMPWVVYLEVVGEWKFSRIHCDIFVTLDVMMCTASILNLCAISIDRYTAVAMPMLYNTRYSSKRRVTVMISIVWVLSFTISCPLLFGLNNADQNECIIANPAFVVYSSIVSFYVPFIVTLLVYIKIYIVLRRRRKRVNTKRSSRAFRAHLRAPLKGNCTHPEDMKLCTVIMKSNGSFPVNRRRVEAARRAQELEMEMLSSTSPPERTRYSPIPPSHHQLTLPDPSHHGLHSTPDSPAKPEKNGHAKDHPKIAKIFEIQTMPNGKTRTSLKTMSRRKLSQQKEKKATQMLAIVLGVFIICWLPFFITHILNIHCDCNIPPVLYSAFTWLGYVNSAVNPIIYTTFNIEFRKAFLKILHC
T3 sequence (P14416 1-414 isoform P14416-2): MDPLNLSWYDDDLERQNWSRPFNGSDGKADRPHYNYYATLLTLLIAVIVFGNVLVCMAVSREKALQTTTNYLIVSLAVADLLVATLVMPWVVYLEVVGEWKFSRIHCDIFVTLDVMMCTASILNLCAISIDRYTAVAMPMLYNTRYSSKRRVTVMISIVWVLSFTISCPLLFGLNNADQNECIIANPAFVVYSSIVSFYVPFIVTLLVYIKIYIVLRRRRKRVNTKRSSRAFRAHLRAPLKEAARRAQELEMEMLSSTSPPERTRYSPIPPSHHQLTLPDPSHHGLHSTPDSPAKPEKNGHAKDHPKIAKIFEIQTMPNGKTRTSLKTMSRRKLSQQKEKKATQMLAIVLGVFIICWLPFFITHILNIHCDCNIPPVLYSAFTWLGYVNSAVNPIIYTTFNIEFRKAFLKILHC
T4 sequence (P35462 whole entry): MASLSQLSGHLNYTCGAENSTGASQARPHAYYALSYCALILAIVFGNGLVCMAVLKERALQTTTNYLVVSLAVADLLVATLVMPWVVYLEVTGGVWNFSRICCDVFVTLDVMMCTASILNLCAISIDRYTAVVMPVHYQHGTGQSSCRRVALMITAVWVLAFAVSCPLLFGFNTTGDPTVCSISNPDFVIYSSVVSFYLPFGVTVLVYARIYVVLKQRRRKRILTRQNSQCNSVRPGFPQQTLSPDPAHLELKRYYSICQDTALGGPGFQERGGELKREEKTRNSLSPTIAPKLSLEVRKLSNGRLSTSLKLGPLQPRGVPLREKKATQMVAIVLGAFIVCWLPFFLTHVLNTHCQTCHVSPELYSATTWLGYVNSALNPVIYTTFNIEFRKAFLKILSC

Row | EC50 [1] [nM] | Emax [1, 7] [%] | IC50 ([1]; with 3 μM dopamine) [nM] | Emax [1, 8] [%] | antagonist activity (in words) [1] | Ki [2] [nM] | EC50 [3] [nM] | Emax [3, 9] [%] | IC50 ([3]; with 10 μM 5-CT) [nM] | Emax [3, 10] [%] | Ki [4] [nM] | binding affinity (in words) [4] | EC50 [5] [nM] | Emax [5, 7] [%] | IC50 ([5]; with 3 μM dopamine) [nM] | Emax [5, 8] [%] | antagonist activity (in words) [5] | agonist activity (in words) [6] | antagonist activity (in words) [6] | Compound | Emax [6, 11] [%] | further results
1 | > 500 | 18 | 72.9 | 75 | antagonist activity | 2.67 | 108 | 100 | > 20000 | 14 | 5.42 | comparatively strong binding affinity | > 500 | 27 | 17.9 | 69 | antagonist activity | strong agonist activity | no antagonist activity was exhibited | Cl.Cl.O=c1[nH]c2cccc(C3CCCN(Cc4cncc(-c5ccc(F)cc5)c4)C3)c2o1 (stereo not drawn) [7-(1-{[5-(4-fluorophenyl)pyridin-3-yl]methyl}piperidin-3-yl)-1,3-benzoxazol-2(3H)-one dihydrochloride] | 69 | EC50 [6, 12]: 1.4 nM; Emax [6, 13]: 22%; IC50 [6, 14]: > 500 nM
2 | > 500 | 2 | 13.3 | 101 | antagonist activity | 0.0293 | 2.4 | 100 | > 100 | 4 | 3.29 | comparatively strong binding affinity | > 500 | 5 | 66.7 | 74 | antagonist activity | did not exhibit an agonist activity | weak antagonist activity | Cl.Cl.Fc1ccc(-c2cncc(CNC[C@H]3CCc4ccccc4O3)c2)cc1 [Sarizotan, 1-[(2R)-3,4-dihydro-2H-chromen-2-yl]-N-{[5-(4-fluorophenyl)pyridin-3-yl]methyl}methanamine dihydrochloride] | – | binding affinity (in words) [2]: particularly strong binding affinity; agonist activity (in words) [3]: particularly strong in activity; EC50 [6]: > 500 nM; IC50 [6]: 181 nM; Emax ([6]; read-out: Agonist assay Emax): 14%; Emax ([6]; read-out: Antagonist assay Emax): 65%

Row | Compound | EC50 [1] [nM] | Emax [1, 7] [%] | IC50 ([1]; with 3 μM dopamine) [nM] | Emax [1, 8] [%] | antagonist activity (in words) [1] | Ki [2] [nM] | EC50 [3] [nM] | Emax [3, 9] [%] | IC50 ([3]; with 10 μM 5-CT) [nM] | Emax [3, 10] [%] | Ki [4] [nM] | binding affinity (in words) [4] | EC50 [5] [nM] | Emax [5, 7] [%] | IC50 ([5]; with 3 μM dopamine) [nM] | Emax [5, 8] [%] | antagonist activity (in words) [5] | agonist activity (in words) [6] | antagonist activity (in words) [6] | Emax [6, 11] [%] | further results
3 | O=C1c2ccccc2OC=C(Cl)N1CCCCN1CC=C(c2ccccn2)CC1 [SUN N4057, 3-chloro-4,5-dihydro-4-{4-[4-(2-pyridyl)-1,2,3,6-tetrahydropyridin-1-yl]butyl}-1,4-benzoxazepin-5-one.dihydrochloride-dihydrate] | > 500 | 27 | > 500 | 47 | does not have an antagonist action | 0.0249 | 2.41 | 100 | > 100 | 3 | 161 | – | > 500 | 41 | > 500 | 25 | does not have an antagonist action | strong agonist activity; also recorded: has an agonist action | no antagonist activity was exhibited | 77 | binding affinity (in words) [2]: particularly strong binding affinity; agonist activity (in words) [3]: particularly strong in activity; also recorded: powerful agonist action; EC50 [6, 12]: 2.12 nM; Emax [6, 13]: 13%; IC50 [6, 14]: > 500 nM
